The values below come from publication PMC3351444, “Molecular Evolution of a Peptide GPCR Ligand Driven by Artificial Neural Networks” (PLoS ONE, 2012).

Read-outs that look alike come from different tables or passages of the source. Square brackets hold non-standard residues; d marks the D form. Peptide text beside a SMILES is read from it.

In series [1] the target is T1, human CMKLR1 (Homo sapiens, UniProt Q99788).
T1 construct: host or cells: HEK293A (Invitrogen), stably expressing human Gα15
T1 sequence (Q99788 1-373): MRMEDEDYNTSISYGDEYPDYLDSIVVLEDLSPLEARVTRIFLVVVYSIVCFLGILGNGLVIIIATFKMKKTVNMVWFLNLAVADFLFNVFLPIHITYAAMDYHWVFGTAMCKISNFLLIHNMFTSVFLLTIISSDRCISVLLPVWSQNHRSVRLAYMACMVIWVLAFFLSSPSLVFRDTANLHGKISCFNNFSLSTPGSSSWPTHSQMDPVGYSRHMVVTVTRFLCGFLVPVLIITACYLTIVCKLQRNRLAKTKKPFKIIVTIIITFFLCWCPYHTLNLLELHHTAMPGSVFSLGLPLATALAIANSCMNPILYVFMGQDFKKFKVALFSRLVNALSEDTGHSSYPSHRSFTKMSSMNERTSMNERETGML
Put plainly: Ca2+ mobilization (CellLux imaging) agonist assay in HEK293A cells expressing CMKLR1 and Gα15. The series is classed as cell-based. The method in brief: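 Agonist-evoked Ca2+ rise, read as FLUO4-AM fluorescence by imaging, in HEK293A cells carrying CMKLR1 plus Gα15. Peptides were diluted in C1 solution (pH 7.4) containing 0.1% BSA. Duplicate signals were averaged, corrected for buffer wells and normalized to background, and EC50 was fitted from amplitude versus concentration.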
For orientation: Calcium assays in cells follow changes in intracellular calcium, usually with a dye or a luminescent sensor.

Series [2] can be described thus: In vitro peptide stability in human serum (RP-HPLC). Particulars: for half-life at 50 µg/mL: human; for t1/2: metabolic stability in human serum.
Where [3] appears, read: Ca2+ mobilization, CMKLR1, decimal comma.
Setting [4] is: Ca2+ mobilization, CMKLR1, decimal comma, NR where no EC50 is given, read-out: EC50.

Take `CC(C)[C@H](N)C(=O)N1CCC[C@H]1C(=O)NCC(=O)N[C@@H](CCC(N)=O)C(=O)N[C@@H](Cc1ccc(O)cc1)C(=O)N[C@@H](C)C(=O)N[C@@H](Cc1ccccc1)C(=O)N[C@H](CO)C(=O)N[C@H](CO)C(=O)O` [compound 99] (H-VPGQYAF[dS][dS]-OH; N-terminus assumed): in series [1] (setting [3]), the max response is 1,7 DF/F0. Further, the EC50 in series [1] (setting [4]) was determined as 129 nM. This compound yielded a half-life at 50 µg/mL in series [2] (human serum, 25% (v/v) in RPMI) of 0.717 h.
For `C[C@H](NC(=O)CN)C(=O)N[C@@H](Cc1ccccc1)C(=O)N[C@@H](CCC(N)=O)C(=O)N[C@@H](Cc1ccccc1)C(=O)N[C@H](CO)C(=O)N[C@@H](C)C(=O)N[C@@H](Cc1ccccc1)C(=O)N[C@H](CO)C(=O)O` [compound 100] (H-GAFQF[dS]AF[dS]-OH; N-terminus assumed), in that order: 1,69 DF/F0, 129 nM and 1.18 h.
Turning to `CC(C)C[C@H](NC(=O)[C@H](N)Cc1ccc(O)cc1)C(=O)N1CCC[C@H]1C(=O)NCC(=O)N[C@@H](CCC(N)=O)C(=O)N[C@@H](Cc1ccc(O)cc1)C(=O)N[C@@H](C)C(=O)N[C@@H](Cc1ccc(O)cc1)C(=O)N[C@@H](CO)C(=O)O` [compound 101] (H-[dY]LPGQYAYS-OH; N-terminus assumed), in series [1] (setting [3]), the max response was 1,56 DF/F0. Further, in series [1] (setting [4]), the EC50 stood at 140 nM. In series [2] (human serum, 25% (v/v) in RPMI), this compound came in with a half-life at 50 µg/mL of 1.35 h.
For the compound `C[C@H](NC(=O)[C@H](Cc1ccccc1)NC(=O)[C@H](C)NC(=O)[C@H](Cc1ccc(O)cc1)NC(=O)[C@H](C)NC(=O)[C@H](Cc1ccccc1)NC(=O)[C@@H](CO)NC(=O)[C@H](Cc1ccccc1)NC(=O)[C@@H](N)CCC(N)=O)C(=O)O` [compound 102] (H-QF[dS]FAYAFA-OH; N-terminus assumed), in series [1] (setting [3]), the max response is recorded as 1,78 DF/F0. Also, the EC50 in series [1] (setting [4]) came to 143 nM. The compound also showed a half-life at 50 µg/mL in series [2] (human serum, 25% (v/v) in RPMI) of 1.38 h.
Regarding `CC(C)C[C@H](NC(=O)[C@H](N)Cc1ccc(O)cc1)C(=O)N1CCC[C@@H]1C(=O)NCC(=O)N[C@@H](CCC(N)=O)C(=O)N[C@@H](Cc1ccc(O)cc1)C(=O)N[C@@H](C)C(=O)N[C@@H](Cc1ccccc1)C(=O)N[C@@H](CO)C(=O)O` [compound 104] (H-[dY]L[dP]GQYAFS-OH; N-terminus assumed), the max response in series [1] (setting [3]) is recorded as 1,73 DF/F0. Also, the EC50 in series [1] (setting [4]) is 246 nM. This compound also had a half-life at 50 µg/mL in series [2] (human serum, 25% (v/v) in RPMI) of 1.33 h.
For `C[C@H](N)C(=O)N[C@@H](Cc1ccccc1)C(=O)N[C@H](CO)C(=O)N[C@@H](CCC(N)=O)C(=O)N[C@@H](Cc1ccccc1)C(=O)N[C@H](CO)C(=O)N[C@@H](C)C(=O)N[C@@H](Cc1ccccc1)C(=O)N[C@H](CO)C(=O)O` [compound 106] (H-AF[dS]QF[dS]AF[dS]-OH; N-terminus assumed), in that order: 1,53 DF/F0, 697 nM and 1.83 h.
In the case of `CC(C)[C@H](NC(=O)[C@@H](Cc1ccc(O)cc1)NC(=O)[C@H](CO)NC(=O)[C@@H]1CCCN1)C(=O)N1CCC[C@H]1C(=O)NCC(=O)N[C@@H](CCC(N)=O)C(=O)N[C@@H](Cc1ccc(O)cc1)C(=O)N[C@@H](C)C(=O)O` [compound 107] (H-PS[dY]VPGQYA-OH; N-terminus assumed), the max response in series [1] (setting [3]) is listed as 1,97 DF/F0. In series [1] (setting [4]), the EC50 is 1060 nM. For the same compound, the half-life at 50 µg/mL in series [2] (human serum, 25% (v/v) in RPMI) was found to be 6.03 h.
On to `CC(C)C[C@H](NC(=O)[C@@H]1CCCN1C(=O)[C@@H](NC(=O)[C@H](Cc1ccc(O)cc1)NC(=O)[C@@H]1CCCN1)C(C)C)C(=O)N[C@H](CC(=O)O)C(=O)N[C@@H](Cc1ccc(O)cc1)C(=O)N[C@@H](C)C(=O)N[C@@H](Cc1ccccc1)C(=O)O` [compound 111] (H-PYVPL[dD]YAF-OH; N-terminus assumed), for which the max response in series [1] (setting [3]) was 1,5 DF/F0. Moreover, the EC50 in series [1] (setting [4]) is 1940 nM. The same compound came in with a half-life at 50 µg/mL in series [2] (human serum, 25% (v/v) in RPMI) of 1.53 h.
Consider `C[C@H](NC(=O)[C@H](Cc1ccc(O)cc1)NC(=O)[C@H](CCC(N)=O)NC(=O)CNC(=O)[C@H](Cc1ccccc1)NC(=O)[C@H](Cc1ccc(O)cc1)NC(=O)[C@H](N)CS)C(=O)N[C@@H](Cc1ccccc1)C(=O)N[C@H](CO)C(=O)O` [compound 113] (H-[dC]YFGQYAF[dS]-OH; N-terminus assumed), for which the max response in series [1] (setting [3]) is recorded as 1,56 DF/F0. In addition, the EC50 in series [1] (setting [4]) amounted to 2190 nM. The half-life at 50 µg/mL in series [2] (human serum, 25% (v/v) in RPMI) was 0.483 h.
In the case of `C[C@H](NC(=O)[C@H](Cc1ccccc1)NC(=O)[C@H](C)NC(=O)[C@H](Cc1ccccc1)NC(=O)[C@@H](N)CCC(N)=O)C(=O)N[C@@H](Cc1ccccc1)C(=O)N[C@@H](C)C(=O)N[C@@H](Cc1ccccc1)C(=O)N[C@H](CO)C(=O)O` [compound 115] (H-QFAFAFAF[dS]-OH; N-terminus assumed), the max response in series [1] (setting [3]) is 1,2 DF/F0. For the same compound, the EC50 in series [1] (setting [4]) came out at 2490 nM. In series [2] (human serum, 25% (v/v) in RPMI), this compound showed a half-life at 50 µg/mL of 0.4 h.
In the case of `C[C@H](NC(=O)[C@H](Cc1ccccc1)NC(=O)[C@H](C)NC(=O)[C@@H](N)Cc1ccccc1)C(=O)N[C@@H](Cc1ccccc1)C(=O)N[C@H](CO)C(=O)N[C@@H](Cc1ccccc1)C(=O)N[C@@H](C)C(=O)N[C@@H](Cc1ccc(O)cc1)C(=O)O` [compound 117] (H-FAFAF[dS]FAY-OH; N-terminus assumed), in series [1] (setting [3]), the max response is given as 0,87 DF/F0. Moreover, in series [1] (setting [4]), the EC50 was 4450 nM. The half-life at 50 µg/mL in series [2] (human serum, 25% (v/v) in RPMI) is 0.433 h.
In series [1], `CC(C)C[C@H](NC(=O)[C@@H](N)Cc1ccc(O)cc1)C(=O)N1CCC[C@H]1C(=O)N[C@H](CO)C(=O)N[C@@H](CCC(N)=O)C(=O)N[C@@H](Cc1ccc(O)cc1)C(=O)N[C@@H](C)C(=O)N[C@@H](Cc1ccccc1)C(=O)N[C@H](Cc1ccccc1)C(=O)O` [compound 119] (H-YLP[dS]QYAF[dF]-OH; N-terminus assumed) came in with an EC50 of 0.31 nM. For the same compound, the max response in series [1] (setting [3]) is 1,62 DF/F0. This compound also returned a half-life at 50 µg/mL in series [2] (serum) of 1.05 h.
Regarding `CC(C)C[C@H](NC(=O)[C@H](N)Cc1ccc(O)cc1)C(=O)N1CCC[C@H]1C(=O)N[C@H](CO)C(=O)N[C@@H](CCC(N)=O)C(=O)N[C@@H](Cc1ccc(O)cc1)C(=O)N[C@@H](C)C(=O)N[C@@H](Cc1ccccc1)C(=O)N[C@H](Cc1ccccc1)C(=O)O` [compound 120] (H-[dY]LP[dS]QYAF[dF]-OH; N-terminus assumed), in series [1] (setting [3]), the max response is on record as 1,97 DF/F0. This compound also came in with a half-life at 50 µg/mL in series [2] (serum) of 28.2 h.
Take `CC(C)C[C@H](NC(=O)[C@H](N)Cc1ccc(O)cc1)C(=O)N1CCC[C@H]1C(=O)N[C@H](CO)C(=O)N[C@@H](CCC(N)=O)C(=O)N[C@@H](Cc1ccc(O)cc1)C(=O)N[C@@H](C)C(=O)N[C@@H](Cc1ccccc1)C(=O)N[C@H](CO)C(=O)O` [compound 121] (H-[dY]LP[dS]QYAF[dS]-OH; N-terminus assumed): the max response in series [1] (setting [3]) is listed as 1,6 DF/F0. In addition, the t1/2 in series [2] was determined as 23.47 h.
In the case of `CC(C)C[C@H](NC(=O)[C@@H](N)Cc1ccc(O)cc1)C(=O)N1CCC[C@H]1C(=O)NCC(=O)N[C@@H](CCC(N)=O)C(=O)N[C@@H](Cc1ccc(O)cc1)C(=O)N[C@H](Cc1c[nH]c2ccccc12)C(=O)N[C@@H](Cc1ccccc1)C(=O)N[C@H](Cc1ccccc1)C(=O)O` [compound 122] (H-YLPGQY[dW]F[dF]-OH; N-terminus assumed), the max response in series [1] (setting [3]) is given as 1,54 DF/F0. In addition, in series [2], the t1/2 is 2.65 h.
Take `CC(C)C[C@H](NC(=O)[C@@H](N)Cc1ccc(O)cc1)C(=O)N1CCC[C@H]1C(=O)N[C@H](CCC(N)=O)C(=O)N[C@@H](CCC(N)=O)C(=O)N[C@@H](Cc1ccc(O)cc1)C(=O)N[C@@H](C)C(=O)N[C@@H](Cc1ccccc1)C(=O)N[C@H](Cc1ccccc1)C(=O)O` [compound 123] (H-YLP[dQ]QYAF[dF]-OH; N-terminus assumed): the max response in series [1] (setting [3]) was 1,74 DF/F0. The compound also showed a t1/2 in series [2] of 1.45 h.
For the compound `CC(C)C[C@H](NC(=O)[C@@H](N)Cc1ccc(O)cc1)C(=O)N1CCC[C@H]1C(=O)N[C@H](C)C(=O)N[C@@H](CCC(N)=O)C(=O)N[C@@H](Cc1ccc(O)cc1)C(=O)N[C@@H](C)C(=O)N[C@@H](Cc1ccccc1)C(=O)N[C@H](CO)C(=O)O` [compound 124] (H-YLP[dA]QYAF[dS]-OH; N-terminus assumed), the max response in series [1] (setting [3]) is 1,75 DF/F0. In series [2], the t1/2 was 1.83 h.
With `CC(C)C[C@H](NC(=O)[C@@H](N)Cc1ccc(O)cc1)C(=O)N1CCC[C@H]1C(=O)NCC(=O)N[C@@H](CCC(N)=O)C(=O)N[C@@H](Cc1ccc(O)cc1)C(=O)N[C@@H](C)C(=O)N1CCC[C@@H]1C(=O)N[C@H](Cc1ccccc1)C(=O)O` [compound 125] (H-YLPGQYA[dP][dF]-OH; N-terminus assumed), in series [1] (setting [3]), the max response is reported as 1,69 DF/F0. The EC50 in series [1] (setting [4]) is 14.3 nM. The same compound yielded a half-life at 50 µg/mL in series [2] (human serum, 25% (v/v) in RPMI) of 0.7 h.
With `CC(C)C[C@H](NC(=O)[C@@H](N)Cc1ccc(O)cc1)C(=O)N1CCC[C@H]1C(=O)NCC(=O)N[C@@H](CCC(N)=O)C(=O)N[C@@H](Cc1ccc(O)cc1)C(=O)N[C@H](Cc1c[nH]c2ccccc12)C(=O)N1CCC[C@H]1C(=O)N[C@H](Cc1ccccc1)C(=O)O` [compound 126] (H-YLPGQY[dW]P[dF]-OH; N-terminus assumed), the max response in series [1] (setting [3]) was 1,33 DF/F0. Further, the EC50 in series [1] (setting [4]) was 21 nM. The same compound showed a half-life at 50 µg/mL in series [2] (human serum, 25% (v/v) in RPMI) of 0.783 h.

As usually defined, the EC50 is the concentration giving half of the maximal effect. Usually half-life stands for the time in which the quantity being followed falls by half.
